From paper PMC6550521, “Stress-Induced Changes in the Lipid Microenvironment of β-(1,3)-D-Glucan Synthase Cause Clinically Important Echinocandin Resistance in Aspergillus fumigatus” (mBio, 2019)
Starred links: 1 amine or outer side, 2 acyl side, 3 side chain; linkers in the order of their positions; H or OH if unused. Positions of bridges follow the written chain, without caps; N, C: chain ends. Non-standard residues stand in square brackets, D forms with d. Residues, ends and D or L forms follow the SMILES beside them. *: point of attachment. Orn(4R-OH,5R-OCH2CH2NMe3+) = C[N+](C)(C)CCO[C@@H](N[*:3])[C@H](O)C[C@H](N[*:1])C(=O)[*:2]; hTyr(3S-OH,4S-OH,3'-OSO3H) = N[C@H](C(=O)O)[C@H](O)[C@@H](O)c1ccc(O)c(OS(=O)(=O)O)c1; pTerphenylCO(4''-OnC5H11) = CCCCCOc1ccc(-c2ccc(-c3ccc(C(=O)*)cc3)cc2)cc1; Orn(4R-OH,5R-OH) = O=C([C@H](C[C@@H](O)[C@@H](O)N[*:3])N[*:1])[*:2]; hTyr(3S-OH,4S-OH) = N[C@H](C(=O)O)[C@H](O)[C@@H](O)c1ccc(O)cc1; Pro(3S-OH,4S-Me) = C[C@H]1CN[C@H](C(=O)O)[C@H]1O; X1 = CCCCCOc1ccc(-c2cc(-c3ccc(C(=O)*)cc3)no2)cc1; Gln(3R-OH) = NC(=O)C[C@@H](O)[C@H](N)C(=O)O; Hyp = O=C(O)[C@@H]1C[C@@H](O)CN1

Legend:
[1] = test system: A. fumigatus RG101; type: cell-based, Aspergillus fumigatus; conditions: for Growth phenotype of RG101 with drug alone: 1 μg/ml drug, RPMI 1640, absence of CAS; for Growth phenotype of RG101 with drug alone / Drug susceptibility testing result, RG101: 24 h; for Drug susceptibility testing result, RG101: Fig 1B
Experimental: The following drugs (supplier) were tested: caspofungin (Merck & Co., Inc.), micafungin (Astellas Pharma US, Inc.), anidulafungin (Pfizer Inc.), itraconazole (Sigma-Aldrich), voriconazole (Pfizer Inc.), and amphotericin B (Sigma-Aldrich). In addition, rezafungin and ibrexafungerp were obtained from Cidara Therapeutics and Scynexis Inc., respectively.

[2] = test system: A. fumigatus ATCC 13073; experiment: Antifungal susceptibility testing (MEC, CLSI M38-A2); type: cell-based, Aspergillus fumigatus; conditions: for Drug susceptibility testing result, ATCC 13073: 24 h, Fig 1B
Experimental: (§1) Minimum effective concentrations (MECs) for A. fumigatus strains were determined according to CLSI document M38-A2 ([48]) and defined as the lowest drug concentration that led to the growth of small, rounded, compact hyphal forms compared to the hyphal growth seen in the drug-free growth control wells. The following drugs (supplier) were tested: caspofungin (Merck & Co., Inc.), micafungin (Astellas Pharma US, Inc.), anidulafungin (Pfizer Inc.), itraconazole (Sigma-Aldrich), voriconazole (Pfizer Inc.), and amphotericin B (Sigma-Aldrich). In addition, rezafungin and ibrexafungerp were obtained from Cidara Therapeutics and Scynexis Inc., respectively.

[3] = test system: Aspergillus fumigatus clinical isolate 32315; experiment: as above; type: cell-based; conditions: clinical isolate 32315, fks1 WT
Experimental: as §1

[4] = test system: Aspergillus fumigatus clinical isolate 32458; experiment: as above; type: cell-based; conditions: clinical isolate 32458, fks1 WT
Experimental: as §1

[5] = test system: Aspergillus fumigatus clinical isolate 68284B; experiment: as above; type: cell-based; conditions: fks1 WT
Experimental: as §1

[6] = test system: Aspergillus fumigatus clinical isolate 2770; experiment: as above; type: cell-based; conditions: clinical isolate 2770, fks1 WT
Experimental: as §1

[7] = test system: Aspergillus fumigatus clinical isolate 117; experiment: as above; type: cell-based; conditions: clinical isolate 117, fks1 WT
Experimental: as §1

[8] = test system: A. fumigatus S679P (fks1 Ser-679-Pro mutant); experiment: as above; type: cell-based, Aspergillus fumigatus
Experimental: as §1

[9] = target: β-(1,3)-D-glucan synthase of RG101 (Aspergillus fumigatus, UniProt Q4WLT4); experiment: Glucan synthase kinetic inhibition assay, enzyme from RG101; type: biochemical; conditions: enzyme from RG101 grown at 4 μg/ml CAS
Experimental: ATCC 13073 or RG101 was grown in liquid YPD medium at 37°C for 16 h. Partially purified glucan synthase was isolated by the product entrapment method, as previously described ([21]). Sensitivity to echinocandin drugs was measured by glucan synthase assay, using a 96-well multiscreen high-throughput screen filtration system (Millipore Corporation, Bedford, MA) in a final volume of 100 μl. Inhibition of the enzyme by the drug was analyzed after incubation of the enzyme with a radioactive substrate over a broad range of concentrations (0 to 10,000 ng/ml) of echinocandins for 1 h at room temperature. Radioactivity from the enzyme product, β-(1,3)-D-glucan, was measured. Inhibition profiles were determined using a sigmoidal response curve fitting algorithm with GraphPad Prism software (v 7.04).
To study the effect of lipids on the enzyme, dihydrosphingosine, phytosphingosine, or phytoceramide C2 (Sigma-Aldrich D6783, P2795, and C8105, respectively) was added directly to the assay mixture and coincubated with an echinocandin for 1 h at room temperature.

[10] = test system: A. fumigatus RG101; experiment: Acute pulmonary aspergillosis model in neutropenic DBA/2 mice, lung fungal burden by qPCR; type: in vivo, Aspergillus fumigatus
Experimental: Resistance of RG101 to CAS in vivo was tested in an acute pulmonary aspergillosis model. Thirty inbred DBA/2 mice were rendered neutropenic and infected with 1 × 10^6 RG101 conidia intratracheally. The mice were then treated with CAS (5 mg/kg of body weight), MFG (5 mg/kg), or vehicle daily for 5 days, and lung burdens were determined using quantitative PCR (qPCR). Details of the experiment are provided in Text S1 in the supplemental material.
All animal experiments performed were approved by the Rutgers University Institutional Animal Care and Use Committee. Thirty female DBA/2 mice [The Jackson Laboratory, Bar Harbor, ME] were used in the experiment. The mice were housed in cages equipped with HEPA filters and were allowed free access to food and water. To establish neutropenia, mice were immunosuppressed with cyclophosphamide on days -4 (150 mg/kg), -1 and +2 (100 mg/kg) intraperitoneally (ip) and hydrocortisone on day -1 (200 mg/kg) via subcutaneous injection (sc). The animals were given prophylaxis sc ceftazidime (50 mg/kg) on all days to prevent secondary bacterial infections. A. fumigatus RG101 was streaked out from a frozen glycerol stock and cultured on Potato dextrose agar (PDA) slant for 2 days. The spores were harvested in phosphate-buffered saline (PBS) with 0.05% (v/v) Tween 20 and counted in a hemocytometer. The mice were briefly anesthetized IP Ketamine (65 mg/kg)/Xylazine (5 mg/kg) and infected with 1×10^6 spores of RG101 in 25 µL volume via intratracheal instillation. The 30 RG101 infected mice were randomized into following treatment arms for IP treatment: vehicle, CAS (5 mg/kg), and MFG (5 mg/kg). The first treatment was given at 3 h post infection (PI) and continued daily treatments were administered. On day 5 PI, mice were humanely euthanized via CO2 narcosis. Lungs were excised and homogenized in 1 ml of sterile PBS using a 2 ml tube containing ceramic spheres by MP Biomedicals (116913500). Tissue was then homogenized in 20 s bursts in a mini bead beater (MP FastPrep-24) followed by cooling on ice. DNA was then isolated from an aliquot of the lung homogenate (100 μl) using the QIAamp DNA Mini Kit by Qiagen (51304) and analyzed by real-time quantitative PCR (qPCR) using primers specific for A. fumigatus 18S rRNA genes (Wiederhold et al 2004).

[11] = test system: reactive oxygen species (ROS) in A. fumigatus RG101; experiment: ROS production, DCFDA fluorescence assay; type: cell-based, Aspergillus fumigatus; conditions: RG101
Experimental: ROS production in mycelia was measured using a protocol previously described by Blatzer et al. ([51]) with a few changes. Suspensions of 10^4 spores/ml of ATCC 13073 and RG101 were grown in static culture in complete supplement mixture (CSM) medium for 16 h in a 96-well microplate at 37°C. After incubation, the mycelia were washed once with CSM, 10 μM 2′,7′–dichlorofluorescin diacetate (DCFDA) dye was added, and cells were incubated in the dark at 37°C for 30 min. Cells were then washed three times with phosphate-buffered saline (PBS), and a final concentration of 1 μg/ml of each echinocandin in CSM medium was added to different wells. Fluorescence intensity (excitation at 485 nm and emission at 530 nm) was measured for 1 h in a microplate reader (Tecan Infinite M200 Pro). Mycelia stained with DCFDA without any drug were used as a control.

[12] = thiourea 15 mM with CAS 1 μg/ml

Chain of β-(1,3)-D-glucan synthase of RG101 (Q4WLT4 1-1904): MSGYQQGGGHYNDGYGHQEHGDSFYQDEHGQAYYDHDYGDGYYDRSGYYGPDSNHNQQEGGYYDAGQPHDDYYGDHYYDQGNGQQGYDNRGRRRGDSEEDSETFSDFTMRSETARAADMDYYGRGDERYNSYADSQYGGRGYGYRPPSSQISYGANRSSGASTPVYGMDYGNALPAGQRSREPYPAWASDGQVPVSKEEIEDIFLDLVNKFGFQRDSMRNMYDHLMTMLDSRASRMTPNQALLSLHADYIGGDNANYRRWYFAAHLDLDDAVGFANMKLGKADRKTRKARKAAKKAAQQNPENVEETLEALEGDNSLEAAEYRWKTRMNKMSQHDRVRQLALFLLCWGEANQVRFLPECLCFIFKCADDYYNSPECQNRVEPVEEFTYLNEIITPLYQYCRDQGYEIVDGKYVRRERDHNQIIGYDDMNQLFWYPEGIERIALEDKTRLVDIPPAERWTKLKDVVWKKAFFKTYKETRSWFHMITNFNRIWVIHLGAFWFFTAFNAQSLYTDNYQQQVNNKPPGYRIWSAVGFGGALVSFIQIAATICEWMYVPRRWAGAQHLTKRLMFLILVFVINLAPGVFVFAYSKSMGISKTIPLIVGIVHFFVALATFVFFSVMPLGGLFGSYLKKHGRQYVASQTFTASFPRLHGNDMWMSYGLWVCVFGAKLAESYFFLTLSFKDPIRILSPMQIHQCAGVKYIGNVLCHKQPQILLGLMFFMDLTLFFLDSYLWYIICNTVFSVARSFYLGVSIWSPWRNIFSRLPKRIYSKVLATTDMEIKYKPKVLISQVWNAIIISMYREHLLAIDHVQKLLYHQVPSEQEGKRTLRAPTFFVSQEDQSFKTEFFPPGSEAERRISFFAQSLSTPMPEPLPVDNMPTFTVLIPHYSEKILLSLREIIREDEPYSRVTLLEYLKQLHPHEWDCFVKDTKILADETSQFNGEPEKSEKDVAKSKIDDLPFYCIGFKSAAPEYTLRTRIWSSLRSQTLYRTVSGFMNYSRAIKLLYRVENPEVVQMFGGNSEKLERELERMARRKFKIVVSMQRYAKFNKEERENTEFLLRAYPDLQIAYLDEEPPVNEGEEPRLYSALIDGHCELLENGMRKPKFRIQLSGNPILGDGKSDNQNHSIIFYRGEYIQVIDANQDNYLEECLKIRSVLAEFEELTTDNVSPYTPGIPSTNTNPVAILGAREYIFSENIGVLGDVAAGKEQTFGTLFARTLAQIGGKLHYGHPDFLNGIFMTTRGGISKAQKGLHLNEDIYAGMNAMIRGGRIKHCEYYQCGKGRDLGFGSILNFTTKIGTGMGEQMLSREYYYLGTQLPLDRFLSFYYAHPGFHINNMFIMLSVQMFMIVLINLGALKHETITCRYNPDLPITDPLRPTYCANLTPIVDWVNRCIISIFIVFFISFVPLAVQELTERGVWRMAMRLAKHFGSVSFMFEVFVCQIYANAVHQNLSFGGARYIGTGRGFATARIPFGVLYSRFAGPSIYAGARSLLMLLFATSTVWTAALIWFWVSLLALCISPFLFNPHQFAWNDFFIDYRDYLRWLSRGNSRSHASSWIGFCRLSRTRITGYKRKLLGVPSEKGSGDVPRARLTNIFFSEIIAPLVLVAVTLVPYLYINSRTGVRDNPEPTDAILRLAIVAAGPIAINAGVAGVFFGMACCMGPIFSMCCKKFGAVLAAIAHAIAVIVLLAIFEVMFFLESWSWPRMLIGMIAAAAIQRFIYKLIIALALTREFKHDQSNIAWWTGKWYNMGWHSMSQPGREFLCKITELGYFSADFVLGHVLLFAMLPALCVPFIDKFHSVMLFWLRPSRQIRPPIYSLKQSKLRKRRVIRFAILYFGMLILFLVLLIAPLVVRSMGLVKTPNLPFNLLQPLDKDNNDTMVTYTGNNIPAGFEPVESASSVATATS

Structure (SMILES)	Growth phenotype of RG101 with drug in combination with CAS [1]	Growth phenotype of RG101 with drug alone [1]	Drug susceptibility testing result, RG101 [1] [µg/mL]	Drug susceptibility testing result, ATCC 13073 [2] [µg/mL]	further results
CCCCCOc1ccc(-c2ccc(-c3ccc(C(=O)N[C@H]4C[C@@H](O)[C@@H](O)NC(=O)[C@@H]5[C@@H](O)[C@@H](C)CN5C(=O)[C@H]([C@@H](C)O)NC(=O)[C@H]([C@H](O)[C@@H](O)c5ccc(O)cc5)NC(=O)[C@@H]5C[C@@H](O)CN5C(=O)[C@H]([C@@H](C)O)NC4=O)cc3)cc2)cc1 [ANF, anidulafungin] ({pTerphenylCO(4''-OnC5H11)}-[Orn(4R-OH,5R-OH)]T[Hyp][hTyr(3S-OH,4S-OH)]T[Pro(3S-OH,4S-Me)]; lactam 1-C)	cross-resistance	sensitive	0.03	0.03	
C[C@@H]1[C@H](O)[C@@H](C)/C=C/C=C/C=C/C=C/C=C/C=C/C=C/[C@H](O[C@@H]2O[C@H](C)[C@@H](O)[C@H](N)[C@@H]2O)C[C@@H]2O[C@](O)(C[C@@H](O)C[C@@H](O)[C@H](O)CC[C@@H](O)C[C@@H](O)CC(=O)O[C@H]1C)C[C@H](O)[C@H]2C(=O)O [Amphotericin B, amphotericin B]			0.5	0.5	
CC(C)[C@@H](C)[C@@]1(C)CC[C@]2(C)[C@H]3CC[C@@H]4[C@@]5(COC[C@@]4(C)[C@@H](OC[C@](C)(N)C(C)(C)C)[C@H](n4ncnc4-c4ccncc4)C5)C3=CC[C@@]2(C)[C@@H]1C(=O)O [IFG, ibrexafungerp]	cross-resistance	sensitive			
CCC(C)n1ncn(-c2ccc(N3CCN(c4ccc(OCC5COC(Cn6cncn6)(c6ccc(Cl)cc6Cl)O5)cc4)CC3)cc2)c1=O (stereo not drawn) [Itraconazole, itraconazole]			0.5	0.5	
CCCCCOc1ccc(-c2cc(-c3ccc(C(=O)N[C@H]4C[C@@H](O)[C@@H](O)NC(=O)[C@@H]5[C@@H](O)[C@@H](C)CN5C(=O)[C@H]([C@H](O)CC(N)=O)NC(=O)[C@H]([C@H](O)[C@@H](O)c5ccc(O)c(OS(=O)(=O)O)c5)NC(=O)[C@@H]5C[C@@H](O)CN5C(=O)[C@H]([C@@H](C)O)NC4=O)cc3)no2)cc1 [MFG, micafungin] (X1-[Orn(4R-OH,5R-OH)]T[Hyp][hTyr(3S-OH,4S-OH,3'-OSO3H)][Gln(3R-OH)][Pro(3S-OH,4S-Me)]; lactam 1-C)	cross-resistance	sensitive	0.03	0.03	MEC (minimum effective concentration) [3]: 2 µg/mL; MEC (minimum effective concentration) [4]: 2 µg/mL; MEC (minimum effective concentration) [5]: 4 µg/mL; MEC (minimum effective concentration) [6]: 2 µg/mL; MEC (minimum effective concentration) [7]: 4 µg/mL; MEC (minimum effective concentration) ([8]; S679P, fks1 Ser-679-Pro): 16 µg/mL; MEC (minimum effective concentration) ([2]; ATCC 13073, fks1 WT): 0.03 µg/mL; IC50 [9]: > 7.87 µM; Decrease in lung burden versus vehicle-treated group ([10]; RG101, 5 mg/kg daily for 5 days): ~5 fold; Average fungal lung burden ([10]; RG101 intratracheal, 5 mg/kg daily IP for 5 days, qPCR): 5.2 ng fungal DNA per lung
CCCCCOc1ccc(-c2ccc(-c3ccc(C(=O)N[C@H]4C[C@@H](O)[C@@H](OCC[N+](C)(C)C)NC(=O)[C@@H]5[C@@H](O)[C@@H](C)CN5C(=O)[C@H]([C@@H](C)O)NC(=O)[C@H]([C@H](O)[C@@H](O)c5ccc(O)cc5)NC(=O)[C@@H]5C[C@@H](O)CN5C(=O)[C@H]([C@@H](C)O)NC4=O)cc3)cc2)cc1 [RZF, rezafungin] ({pTerphenylCO(4''-OnC5H11)}-[Orn(4R-OH,5R-OCH2CH2NMe3+)]T[Hyp][hTyr(3S-OH,4S-OH)]T[Pro(3S-OH,4S-Me)]; lactam 1-C)	cross-resistance	sensitive			
C[C@@H](c1ncncc1F)[C@](O)(Cn1cncn1)c1ccc(F)cc1F [Voriconazole, voriconazole]			0.12	0.12	
CCCCCC[C@H]1C(=O)O[C@H](C)[C@H](NC(=O)c2cccc(NC=O)c2O)C(=O)O[C@@H](C)[C@@H]1OC(=O)CC(C)C [antimycin A]					Decrease of CAS-induced ROS production ([11]; 0.5 μg/ml antimycin A): over 2 fold
NC(N)=S [thiourea]					Effect on CAS-induced breakthrough resistance phenotype of RG101 [1, 12]: reversed; Effect on CAS resistance of S679P [8, 12]: no effect; Effect on CAS phenotype of ATCC 13073 [2, 12]: no change; Reduction of CAS-induced ROS levels ([11]; 15 mM thiourea): 4 fold
